{"source": "paper PMC9705314", "about": "“Characterization of a new potent and long-lasting single chain peptide agonist of RXFP1 in cells and in vivo translational models” (Scientific Reports, 2022)", "key": {"RXFP1": {"molecular_target": "T1, RXFP1 (Rattus norvegicus, UniProt Q6R6I6)", "T1 construct": "measured in conscious telemetered SD rats; tissue Charles River Laboratories; host or cells: whole animal, male Sprague Dawley rats (heart; renal vasculature)", "T1 sequence (Q6R6I6 1-758)": "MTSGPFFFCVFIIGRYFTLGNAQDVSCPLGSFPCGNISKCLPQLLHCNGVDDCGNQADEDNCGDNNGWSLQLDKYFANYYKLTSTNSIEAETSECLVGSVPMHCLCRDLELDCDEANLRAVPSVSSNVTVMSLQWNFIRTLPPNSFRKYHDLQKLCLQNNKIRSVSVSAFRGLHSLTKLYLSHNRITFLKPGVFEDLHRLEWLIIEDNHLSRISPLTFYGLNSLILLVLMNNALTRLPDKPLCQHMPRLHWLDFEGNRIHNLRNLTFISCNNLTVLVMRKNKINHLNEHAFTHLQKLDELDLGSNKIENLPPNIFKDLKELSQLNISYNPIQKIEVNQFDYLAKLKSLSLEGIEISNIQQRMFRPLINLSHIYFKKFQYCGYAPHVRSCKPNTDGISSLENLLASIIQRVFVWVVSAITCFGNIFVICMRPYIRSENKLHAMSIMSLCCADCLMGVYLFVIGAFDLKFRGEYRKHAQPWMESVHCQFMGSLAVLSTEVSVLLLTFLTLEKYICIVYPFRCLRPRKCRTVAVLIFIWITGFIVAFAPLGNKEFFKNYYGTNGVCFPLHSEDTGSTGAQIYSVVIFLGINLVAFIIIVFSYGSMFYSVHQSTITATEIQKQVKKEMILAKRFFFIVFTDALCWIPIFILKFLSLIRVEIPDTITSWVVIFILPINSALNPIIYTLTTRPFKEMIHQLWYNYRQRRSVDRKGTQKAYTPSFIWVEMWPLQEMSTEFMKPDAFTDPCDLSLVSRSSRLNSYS", "assay": "Telemetry (heart rate) in conscious SD rats", "assay_type": "in vivo", "settings": "conscious telemetered SD rats, single iv relaxin 1, 3 and 10 µg/kg, n = 5/group"}, "hRXFP1 (S69P/F76V)": {"molecular_target": "T2, hRXFP1 (S69P/F76V) (Homo sapiens, UniProt Q9HBX9, F76V/S69P)", "T2 sequence (Q9HBX9 1-757 S69P/F76V)": "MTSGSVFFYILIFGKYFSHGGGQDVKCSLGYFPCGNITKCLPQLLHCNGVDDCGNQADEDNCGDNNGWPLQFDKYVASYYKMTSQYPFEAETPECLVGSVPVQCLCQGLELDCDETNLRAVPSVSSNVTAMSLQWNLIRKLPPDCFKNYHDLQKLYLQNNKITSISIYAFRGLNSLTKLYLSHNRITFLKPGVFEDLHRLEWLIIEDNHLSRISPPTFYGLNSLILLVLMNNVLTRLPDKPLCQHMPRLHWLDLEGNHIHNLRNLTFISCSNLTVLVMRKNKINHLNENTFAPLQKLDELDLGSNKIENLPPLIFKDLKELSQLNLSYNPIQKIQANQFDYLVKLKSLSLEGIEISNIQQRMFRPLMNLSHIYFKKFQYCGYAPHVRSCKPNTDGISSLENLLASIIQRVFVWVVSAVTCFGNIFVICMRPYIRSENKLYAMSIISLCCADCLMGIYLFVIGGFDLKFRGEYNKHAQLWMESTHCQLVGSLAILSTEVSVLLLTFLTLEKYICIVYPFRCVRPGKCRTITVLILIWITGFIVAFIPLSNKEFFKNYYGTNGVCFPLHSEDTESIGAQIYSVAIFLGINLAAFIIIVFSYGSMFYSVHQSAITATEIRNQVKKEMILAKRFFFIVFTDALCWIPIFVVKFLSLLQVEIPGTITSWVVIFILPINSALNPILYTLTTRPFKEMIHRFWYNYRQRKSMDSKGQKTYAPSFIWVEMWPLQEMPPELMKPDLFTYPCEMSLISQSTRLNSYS", "assay": "cAMP production in HEK cells expressing hRXFP1 (S69P/F76V)", "assay_type": "cell-based", "settings": "hRXFP1 F76V-S69P dual mutant, n = 4 experiments in duplicate", "procedure": "HEK cells were stably transduced with lentiviral constructs (Vectalys, MOI 20, batches rV2.1A1.5057 B, rV2.1A1.5056 B and rV2.1A1.5059 B) containing a bicistronic vectors encoding hRXFP1 (S69P) or hRXFP1 (F76V) or hRXFP1 (S69P/F76V) under the EF1 promoter followed by an internal ribosome entry site (IRES) elements to express the neomycin antibiotic resistance gene for selection with 500 μg/mL Geneticin (Invitrogen, #10131-019). Three days post transduction, HEK cells were grown in the presence of Genetecin. Positive individual clones were selected and amplified, and cAMP readout (nM) was used as described for other cell types at a cell density of 8000 cells/well."}}, "data": [{"substance": "relaxin", "values": [{"measurement": "duration of the heart rate effect", "setting": "RXFP1", "value": "4 to 6", "unit": "h"}, {"measurement": "cAMP response (efficacy)", "setting": "hRXFP1 (S69P/F76V)", "value": "reduced in all RXFP1 mutants compared to the wild type construct"}]}]}
